What was measured:
Jurkat cells = assay: Cell size assay in Jurkat cells (forward scatter, flow cytometry); type: cell-based, human; settings: 48 h incubation, dose-dependent
Method: Based on the dependence of cell size on mTORC1 activity, we assessed the effect of NR1 on the size of Jurkat cells, a human T cell line grown in suspension and responsive to mTORC1 inhibition.
Data are plotted as percent decrease in forward scatter. […] Error bars represent standard deviation of the mean of duplicates; graph represents data from one of two separate experiments
For the cell size assay, Jurkat Clone E-61 cells were plated in 96-well plates concurrent with compound. The cells were incubated at 37 °C and 5% CO2 for 48 h. PI stain (Invitrogen #727949) was added at a final concentration of 1 µg mL^−1, and cells were incubated for 15 min at room temperature. FACS analysis was performed; at least 10,000 events were collected for each sample. Viable cells (PI minus) were counted for FSC and SSC, and cell size (as measured by FSC) relative to the DMSO control was calculated.

[1] = Pharmacokinetic profile in mouse plasma; type: in vivo
Method: (§1) The selective inhibition of mTORC1 activation by NR1 in vitro and in cell-based systems prompted us to evaluate the effect of this compound on mTORC1 activity in vivo. […] In particular, the plasma concentration of NR1 was sustained over 5 µM for 2 h after IP administration of a 30 mg kg^−1 dose (Supplementary Fig. 10). We therefore carried out a pharmacodynamic (PD) study to evaluate the efficacy of NR1 at inhibiting mTORC1 signaling in vivo. In this experiment, mice were starved overnight to achieve a low basal level of mTORC1 activation (pre-dose). After a 16 h fast, the animals were treated with either vehicle or 30 mg kg^−1 NR1 and allowed to re-feed for 2 h before sacrifice and tissue collection. mTORC1 activity was measured by quantification of ^S240/244pS6 by Western blot analysis with a specific antibody. We chose kidney and gastrocnemius muscle as target tissues due to the relevance of mTORC1 in renal cell carcinoma[51] and angiomyolipomas in TSC and LAM[12] and for its important role in the regulation of protein synthesis and muscle mass[52]. The results are summarized in Fig. 6 for skeletal muscle and Supplementary Fig. 11 for kidney.
This study was conducted in accordance with the requirements for the humane care and use of animals set forth in the Animal Welfare Act, the IACUC Guide for the Care and Use of Laboratory Animals, applicable Shanghai and state laws, and regulations and policies of Shanghai ChemPartner Ltd. The animals were not randomized, and the study was not blinded. Male C57BL/6 mice (5 per treatment group, 6–7 weeks old) were fasted of food overnight for 16 hours. IP injection of compound dissolved in MC Tween (0.5% methyl cellulose and 0.1% Tween-80 in water) was given, and then the mice were allowed to feed again ad libitum until sacrifice. The animals were euthanized with CO2. Compound levels in the plasma of treated mice were measured by LC-MS/MS and compared to a standard curve of compound diluted into mouse plasma.
Supplementary Figure 10. Pharmacokinetic profile of NR1 in mouse plasma after a single 30
mg/Kg (body weight) intraperitoneal dose. The dotted line corresponds to 5 µM concentration. Error
bars represent standard deviation of the mean values for n=3 mice.

[2] = system: mTORC1 activity (S240/244pS6) in skeletal muscle; assay: PD study: feeding-induced mTORC1 activation in gastrocnemius muscle; type: in vivo, mouse; settings: mice fasted 16 h, 30 mg kg^−1 IP, re-fed 2 h
Method: as §1
Fig. 6 NR1 inhibits feeding-induced mTORC1 activation in skeletal muscle. […] After 2 h, gastrocnemius muscle was collected, and ^S240/244pS6 levels were measured by Western blot and quantified. […]

[3] = target: T1, FLAG-Rheb / myc-mTOR interaction (Homo sapiens, UniProt Q15382); assay: Co-immunoprecipitation of overexpressed FLAG-Rheb and myc-mTOR; type: cell-based; settings: review-only material
T1 construct: expressed in transfected cells
Text: Response: We agree with Reviewer 2 and have included a brief discussion on the potential effects of chronic Rheb inhibition in the discussion section (p. 25).
“As with any new pharmacological agent, the anticipated side effects will need to be considered. The only data available from the literature that may help in understanding the potential side-effects of reducing Rheb activity come from genetic knock-out studies which, because of their inherent impacts on developmental and other effects, cannot be directly related to what might be expected following pharmacological inhibition. Thus, careful development of a novel Rheb inhibitor would have to take into account the potential organ systems that may be impacted, such as neurological63, 64 and […]
Below is a list of concerns that would need to be addressed in order for this work to be considered for publication in Nature Communications.
1. The authors state that it is “conceivable that portions of NR1 positioned outside the Rheb binding pocket sterically block the interaction with mTORC1. Given that the authors have access to recombinant Rheb and mTOR protein, it is unclear why there is no direct evidence that NR1 can inhibit their interaction. Alternatively, the effects of NR1 on Rheb-mTOR interactions could be shown in cells through co-IP. […]

[4] = ip, mouse plasma, single 30 mg/Kg intraperitoneal dose

T1 sequence (Q15382 1-181 limits assumed): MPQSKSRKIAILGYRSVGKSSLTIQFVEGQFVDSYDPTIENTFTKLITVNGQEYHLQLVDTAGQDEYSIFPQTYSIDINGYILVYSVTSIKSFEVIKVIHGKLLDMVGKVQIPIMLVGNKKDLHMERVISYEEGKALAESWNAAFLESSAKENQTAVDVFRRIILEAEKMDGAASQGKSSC

With `CN(C)C(=O)c1ccc(Cn2c(C(=O)O)cc3c(Br)cc(Sc4ccc(Cl)c(Cl)c4)cc32)cc1` [NR1, 4-bromo-6-(3,4-dichlorophenylthio)-1-(4-(dimethylcarbamoyl)benzyl)-1H-indole-2-carboxylic acid] the “size of Jurkat cells” value (Jurkat cells) was “effectively reduced the size”, the AUC(0-inf) [1, 4] was 23500 ng·h/mL and the AUC(0-t) [1, 4] was 23500 ng·h/mL. The Cmax [1, 4] was 7800 ng/mL, the Tmax [1, 4] was 0.25 h and the half-life ([1]; ip, mouse plasma, single 30 mg/Kg intraperitoneal dose, read-out: Terminal t1/2 (converted)) was 2.24 h. The “plasma concentration sustained for 2 h” value ([1]; mouse, IP, 30 mg kg^−1) was “over 5 µM”, the “T37/46 4E-BP1 in skeletal muscle” value [2] was “clear band shift” and the “mTORC1 activity (S240/244pS6) in skeletal muscle versus vehicle” value [2] was “significantly reduced mTORC1 activity”. The Rheb-mTOR interaction [3] was “does not modulate”.

— paper PMC5803267, “A small molecule inhibitor of Rheb selectively targets mTORC1 signaling” (Nature Communications, 2018)
